Data published in EP3183252B1, “OXALATE SALT OF RUXOLITINIB” (ratiopharm GmbH, priority 2014, dated 2016).
Structures can show the parent of a compound that is named as a salt.

How the values were obtained:
Type in all cases: physicochemical
[1] = pH-dependencies of solubility at 37°C; conditions: for solubility at 0.5 h / solubility at 1 h / solubility at 24 h / pH dependency of solubility (in words) / solubility: 37°C; for solubility at 1 h / solubility at 24 h: thermodynamic from solid; for pH dependency of solubility (in words): pH 4.5 and 6.8
Excerpt: The intestinal tract obeys different pH ranges, which vary from pH 1 to 2 of the empty stomach, pH 3-5 for stomach filled with chyme, to pH 5-7.5 of the colon.

[2] = Storage stability: solid state by XRPD analysis
Procedure: The sample was analyzed on a D8 Advance X-ray powder diffractometer (Bruker-AXS, Karlsruhe, Germany). The sample holder was rotated in a plane parallel to its surface at 20 rpm during the measurement. The raw data were analyzed with the program EVA (Bruker-AXS, Germany). The samples were layered onto a silicon specimen holder
(§1) Samples were stored in closed and open containers at 25°C/60% rh and at 40°C/75% rh and analyzed after 4, 8 and 12 weeks.
The solid-state stability was investigated by XRPD analysis. The results of evaluation are summarized. Ruxolitinib phosphate and Ruxolitinib oxalate remained unchanged throughout the observation period.

[3] = Storage stability: chemical purity by HPLC/UV; conditions: for Chemical purity ([area-%] at λ=230 nm): 40°C/75% rh
Procedure: as §1
The results of determination of the chemical purity during storage at 40°C/75% rh are summarized. Both salts remained chemically stable when stored under these conditions. Therefore, the analysis of samples, which were stored at 25°C/60% rh, was omitted.

[4] = Dynamic vapor sorption experiment (hygroscopicity)
Procedure: Vapour sorption experiments were performed in the instrument SPSx-1µ (Projekt Messtechnik, Ulm, Germany) at temperature of 25°C and the humidity cycles as shown below.
A dynamic vapor sorption experiment was performed with Ruxolitinib oxalate. At a constant temperature of 25°C, the substance was exposed to two cycles of varying relative humidity (rh) (40% → 0% →95% (75% r.h. kept constant for 48h) → 0% →40%). Figure 3a presents the relative weight change as a function of time and relative humidity and in […] changes are illustrated as a function of humidity.

[5] = 20mM sodium acetate pH 4.5, 0.5 h
[6] = aqueous buffer, 20mM sodium acetate pH 4.5, 1 h
[7] = aqueous buffer, 20mM sodium acetate pH 4.5, 24 h
[8] = aqueous buffer, 50mM KH2PO4 pH 6.8, 1 h
[9] = aqueous buffer, 50mM KH2PO4 pH 6.8, 24 h
[10] = pH 1.2, simulated gastric fluid, 0.1M HCl pH1.2, 1 h
[11] = pH 1.2, simulated gastric fluid, 0.1M HCl pH1.2, 24 h

Compound `N#CC[C@H](C1CCCC1)n1cc(-c2ncnc3[nH]ccc23)cn1` (stereo in doubt) [Ruxolitinib maleate] has a solubility at 0.5 h [1, 5] of 2.8 mg/mL, a solubility at 0.5 h ([1]; 50mM KH2PO4 pH 6.8, 0.5 h) of 2.9 mg/mL and a solubility at 1 h [1, 6] of 3.2 mg/mL. It also gave a solubility at 24 h [1, 7] of 2.4 mg/mL, a solubility at 1 h [1, 8] of 2.9 mg/mL and a solubility at 24 h [1, 9] of 2.5 mg/mL. For the same compound, the solubility at 1 h [1, 10] was 12 mg/mL, the solubility at 24 h [1, 11] was 12.2 mg/mL and the solubility at 0.5 h ([1]; pH 1.2, 0.1M HCl pH1.2, 0.5 h) was 12.5 mg/mL. The “pH dependency of solubility (in words)” value [1] was “distinct pH dependency”.
For `N#CC[C@H](C1CCCC1)n1cc(-c2ncnc3[nH]ccc23)cn1` [Ruxolitinib phosphate], the “Evaluation of XRPD analysis” value ([2]; 25°C/60% rh, closed, 4 weeks) was “unchanged”, the “Evaluation of XRPD analysis” value ([2]; 25°C/60% rh, closed, 8 weeks) was “unchanged” and the “Evaluation of XRPD analysis” value ([2]; 25°C/60% rh, closed, 12 weeks) was “unchanged”. For the same compound, the “Evaluation of XRPD analysis” value ([2]; 25°C/60% rh, open, 4 weeks) was “unchanged”, the “Evaluation of XRPD analysis” value ([2]; 25°C/60% rh, open, 8 weeks) was “unchanged” and the “Evaluation of XRPD analysis” value ([2]; 25°C/60% rh, open, 12 weeks) was “unchanged”. The “Evaluation of XRPD analysis” value ([2]; 40°C/75% rh, closed, 4 weeks) was “unchanged”, the “Evaluation of XRPD analysis” value ([2]; 40°C/75% rh, closed, 8 weeks) was “unchanged” and the “Evaluation of XRPD analysis” value ([2]; 40°C/75% rh, closed, 12 weeks) was “unchanged”. For the same compound, the “Evaluation of XRPD analysis” value ([2]; 40°C/75% rh, open, 4 weeks) was “unchanged”, the “Evaluation of XRPD analysis” value ([2]; 40°C/75% rh, open, 8 weeks) was “unchanged” and the “Evaluation of XRPD analysis” value ([2]; 40°C/75% rh, open, 12 weeks) was “unchanged”. For the same compound, the “Chemical purity ([area-%] at λ=230 nm)” value ([3]; closed, 4 weeks) was 99,04% area-%, the “Chemical purity ([area-%] at λ=230 nm)” value ([3]; closed, 8 weeks) was 99,20% area-% and the “Chemical purity ([area-%] at λ=230 nm)” value ([3]; closed, 12 weeks) was 99,03% area-%. The “Chemical purity ([area-%] at λ=230 nm)” value ([3]; closed, t = 00 (= initial)) was 99,05 area-%, the “Chemical purity ([area-%] at λ=230 nm)” value ([3]; open, 4 weeks) was 99,13% area-% and the “Chemical purity ([area-%] at λ=230 nm)” value ([3]; open, 8 weeks) was 99,28% area-%. For the same compound, the “Chemical purity ([area-%] at λ=230 nm)” value ([3]; open, 12 weeks) was 99,10% area-%, the “Chemical purity ([area-%] at λ=230 nm)” value ([3]; open, t = 00 (= initial)) was 99,05 area-% and the solubility at 1 h ([1]; 20mM sodium acetate buffer, aqueous buffer, 20mM sodium acetate pH 4.5, 1 h) was 6 mg/mL. The solubility at 24 h ([1]; 20mM sodium acetate buffer, aqueous buffer, 20mM sodium acetate pH 4.5, 24 h) was 6.8 mg/mL, the solubility at 1 h ([1]; 50mM KH2PO4 buffer, aqueous buffer, 50mM KH2PO4 pH 6.8, 1 h) was 4.7 mg/mL and the solubility at 24 h ([1]; 50mM KH2PO4 buffer, aqueous buffer, 50mM KH2PO4 pH 6.8, 24 h) was 5.7 mg/mL. The “solubility (in words)” value ([1]; higher pH points than pH 1.2) was “considerably less solubility”, the “solubility (in words)” value ([1]; pH 1.2) was “good solubility” and the solubility at 1 h [1, 10] was 43.2 mg/mL. The solubility at 24 h [1, 11] was 44 mg/mL.
`N#CC[C@H](C1CCCC1)n1cc(-c2ncnc3[nH]ccc23)cn1` (stereo in doubt) [Ruxolitinib sulfate] showed a solubility ([1]; 20mM sodium acetate pH 4.5, 0.5 h, 30 min) of 10.4 mg/mL, a solubility ([1]; 20mM sodium acetate pH 4.5, 1 h, 60 min) of 10.6 mg/mL and a solubility ([1]; 20mM sodium acetate pH 4.5, 24 h, 1440 min) of 9.5 mg/mL. The solubility ([1]; 50mM KH2PO4 pH 6.8, 0.5 h, 30 min) was 9.6 mg/mL, the solubility ([1]; 50mM KH2PO4 pH 6.8, 1 h, 60 min) was 9.8 mg/mL and the solubility ([1]; 50mM KH2PO4 pH 6.8, 24 h, 1440 min) was 8.3 mg/mL. The solubility ([1]; 0.1M HCl pH1.2, 0.5 h, 30 min) was 18.5 mg/mL, the solubility ([1]; 0.1M HCl pH1.2, 1 h, 60 min) was 18.5 mg/mL and the solubility ([1]; 0.1M HCl pH1.2, 24 h, 1440 min) was 16.7 mg/mL. For the same compound, the “pH dependency of solubility (in words)” value [1] was “less pH dependency”.
In the case of `N#CC[C@H](C1CCCC1)n1cc(-c2ncnc3[nH]ccc23)cn1` [Ruxolitinib oxalate], the “solid state by XRPD analysis after the DVS experiment, compared to prior” value [4] is reported as “identical”, the “stable upon storage for” value ([3]; 25°C and 60% relative humidity (RH)) is reported as “at least 12 weeks” and the “stable upon storage for” value ([3]; 40°C/75% RH) is reported as “at least 12 weeks”. The “Chemical purity ([area-%] at λ=230 nm)” value ([3]; closed, 4 weeks) was 100,00% area-%, the “Chemical purity ([area-%] at λ=230 nm)” value ([3]; closed, 8 weeks) was 99,95% area-% and the “Chemical purity ([area-%] at λ=230 nm)” value ([3]; closed, 12 weeks) was 99,90% area-%. For the same compound, the “Chemical purity ([area-%] at λ=230 nm)” value ([3]; closed, t = 00 (= initial)) was 99,89 area-%, the “Chemical purity ([area-%] at λ=230 nm)” value ([3]; open, 4 weeks) was 100,00% area-% and the “Chemical purity ([area-%] at λ=230 nm)” value ([3]; open, 8 weeks) was 99,91% area-%. For the same compound, the “Chemical purity ([area-%] at λ=230 nm)” value ([3]; open, 12 weeks) was 99,85% area-%, the “Chemical purity ([area-%] at λ=230 nm)” value ([3]; open, t = 00 (= initial)) was 99,89 area-% and the “solubility overall (in words)” value [1] was “good solubility”. The solubility at 0.5 h [1, 5] was 24.1 mg/mL, the solubility at 0.5 h ([1]; 50mM KH2PO4 pH 6.8, 0.5 h) was 21.5 mg/mL and the solubility at 1 h [1, 6] was 27.7 mg/mL. For the same compound, the solubility at 24 h [1, 7] was 29.9 mg/mL, the solubility at 1 h [1, 8] was 23.5 mg/mL and the solubility at 24 h [1, 9] was 23.9 mg/mL. It also gave a solubility at 1 h [1, 10] of 56.3 mg/mL, a solubility at 24 h [1, 11] of 57.4 mg/mL and a solubility at 0.5 h ([1]; pH 1.2, 0.1M HCl pH1.2, 0.5 h) of 57.8 mg/mL.
